Measured values as given in article PMC4583449, “Characterisation of (R)-2-(2-Fluorobiphenyl-4-yl)-N-(3-Methylpyridin-2-yl)Propanamide as a Dual Fatty Acid Amide Hydrolase: Cyclooxygenase Inhibitor” (PLoS ONE, 2015).
“And” between values parts separate entries of the source, which are not always exact repeats. Equal entries are not always repeated. Where two headings read alike, the source gives them in different places.

Legend:
[1] = system: RAW 264.7 cells; experiment: Lipid profile (prostaglandins, 2-AG, AEA and related lipids) of RAW 264.7 cell extracts, UPLC-MS/MS; assay type: cell-based, mouse; conditions: 30 min
[2] = molecular target: T1, ovine COX-1 (Ovis aries, UniProt P05979); experiment: COX-1 inhibition, oxygraphic method (oxygen electrode); assay type: biochemical; conditions: 10 μM arachidonic acid; no preincubation phase; approximate, from initial velocities
T1 construct: purchased Cayman Chemical Co. 60100
T1 sequence (P05979 25-600): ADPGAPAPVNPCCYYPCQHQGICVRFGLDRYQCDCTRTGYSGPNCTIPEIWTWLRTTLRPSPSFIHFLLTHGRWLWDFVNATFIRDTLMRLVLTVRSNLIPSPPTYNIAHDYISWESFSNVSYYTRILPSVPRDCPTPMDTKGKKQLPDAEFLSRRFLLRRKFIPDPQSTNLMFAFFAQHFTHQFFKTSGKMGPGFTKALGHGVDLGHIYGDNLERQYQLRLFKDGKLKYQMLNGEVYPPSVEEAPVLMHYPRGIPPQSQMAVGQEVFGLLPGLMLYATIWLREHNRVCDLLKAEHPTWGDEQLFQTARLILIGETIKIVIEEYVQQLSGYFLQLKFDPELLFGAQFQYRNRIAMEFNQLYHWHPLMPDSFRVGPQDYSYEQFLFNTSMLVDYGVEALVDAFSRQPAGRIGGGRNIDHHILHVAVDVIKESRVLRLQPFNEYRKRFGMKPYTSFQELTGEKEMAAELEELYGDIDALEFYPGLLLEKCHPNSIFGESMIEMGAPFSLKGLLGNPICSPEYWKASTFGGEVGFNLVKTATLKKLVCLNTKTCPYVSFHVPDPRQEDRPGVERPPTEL
Procedure: (§1) The assay was performed according to Meade et al. with minor modifications. An oxygen electrode chamber with integral stirring (Oxygraph System, Hansatech Instruments, King´s Lynn, U.K.) was calibrated daily to ambient temperature and air pressure. The assay buffer contained 0.1 M Tris-HCl buffer pH 7.4, 1 μM haematin, 2 mM phenol, 5 mM EDTA, 10 μM substrate (arachidonic acid or 2-AG) (final assay volume was 2 ml). After addition of (R)- or (S)-Flu-AM1 dissolved in ethanol (final assay concentration 1%), a baseline was established for 5 min before initiation of reaction by addition of 200 units ovine COX-1 or human recombinant COX-2. The change in oxygen consumption as a measurement of enzyme activity was monitored for approximately 5 min.

[3] = molecular target: T2, human recombinant COX-2 (Homo sapiens, UniProt P35354); experiment: COX-2 inhibition, oxygraphic method (oxygen electrode); assay type: biochemical; conditions: no preincubation phase, approximate, from initial velocities
T2 construct: purchased Cayman Chemical Co. 60122
T2 sequence (P35354 18-604): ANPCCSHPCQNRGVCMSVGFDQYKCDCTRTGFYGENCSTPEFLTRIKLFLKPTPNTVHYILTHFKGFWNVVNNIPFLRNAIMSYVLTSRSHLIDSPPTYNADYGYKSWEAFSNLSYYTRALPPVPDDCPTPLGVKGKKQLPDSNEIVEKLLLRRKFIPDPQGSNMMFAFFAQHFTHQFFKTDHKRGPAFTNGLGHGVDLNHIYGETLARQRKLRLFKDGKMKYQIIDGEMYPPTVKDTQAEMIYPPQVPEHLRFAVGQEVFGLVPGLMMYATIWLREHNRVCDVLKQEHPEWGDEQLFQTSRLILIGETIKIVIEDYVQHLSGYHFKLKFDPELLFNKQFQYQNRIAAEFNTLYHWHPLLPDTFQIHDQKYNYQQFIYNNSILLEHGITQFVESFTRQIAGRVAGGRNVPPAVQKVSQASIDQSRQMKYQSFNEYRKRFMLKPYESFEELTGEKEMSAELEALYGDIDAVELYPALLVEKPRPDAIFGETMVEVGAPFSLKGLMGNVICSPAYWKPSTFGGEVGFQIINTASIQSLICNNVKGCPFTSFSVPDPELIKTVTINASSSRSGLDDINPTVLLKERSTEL
Procedure: as §1

[4] = molecular target: T3, rat brain FAAH (Rattus norvegicus, UniProt P97612); experiment: [3H]AEA hydrolysis in rat brain homogenates; assay type: biochemical; conditions: current authors, unpublished data; read-out: IC50 inhibition of [3H]AEA hydrolysis in rat brain homogenates
T3 construct: the racemate was studied in rat brain homogenates, whereas mouse brain homogenates were used here; from tissue; host or cells: rat brain homogenates
T3 sequence (P97612 1-579): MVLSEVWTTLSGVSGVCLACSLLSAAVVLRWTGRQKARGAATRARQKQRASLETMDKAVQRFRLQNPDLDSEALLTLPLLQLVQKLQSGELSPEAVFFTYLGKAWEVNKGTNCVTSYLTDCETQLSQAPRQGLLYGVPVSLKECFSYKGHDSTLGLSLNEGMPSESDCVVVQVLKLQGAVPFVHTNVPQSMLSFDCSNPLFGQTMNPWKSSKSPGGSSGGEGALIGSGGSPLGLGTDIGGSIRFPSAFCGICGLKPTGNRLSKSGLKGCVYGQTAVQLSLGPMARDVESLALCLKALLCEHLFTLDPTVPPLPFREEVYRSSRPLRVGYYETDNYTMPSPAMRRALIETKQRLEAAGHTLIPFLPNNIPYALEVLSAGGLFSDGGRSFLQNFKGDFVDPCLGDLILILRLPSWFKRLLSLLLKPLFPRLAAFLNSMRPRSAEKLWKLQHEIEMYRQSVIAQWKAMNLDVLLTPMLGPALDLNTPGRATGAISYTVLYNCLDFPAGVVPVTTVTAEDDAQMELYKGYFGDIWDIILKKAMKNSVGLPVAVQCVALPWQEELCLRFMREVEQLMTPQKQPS

[5] = LPS + IFNγ 24 h, URB597 1 μM, flurbiprofen 10 μM, (R)-Flu-AM1 10 μM, median (range), n = 5–6
[6] = Treatment None (unstimulated), URB597 1 μM, flurbiprofen 10 μM, (R)-Flu-AM1 10 μM, median (range), n = 5–6

SMILES: Cc1cccnc1NC(=O)[C@H](C)c1ccc(-c2ccccc2)c(F)c1 [(R)-Flu-AM1, (R)-2-(2-Fluorobiphenyl-4-yl)-N-(3-Methylpyridin-2-yl)Propanamide]
- Effect on basal and LPS + INF-γ-stimulated PGD2 and PGE2 production ([1]; 10 μM): almost complete inhibition
- Effect upon linoleic acid-derived oxylipins ([1]; 10 μM): No significant effects
- Effect on levels of 2-AG in the cell extracts ([1]; 10 μM, unstimulated and LPS + INF-γ-treated): not affected
- 2-AG level relative to vehicle None median [1, 5]: 0.81 (0.64–0.98)
- 9,10,13-TriHOME level relative to vehicle None median [1, 5]: 1.18 (0.90–1.49)
- 9,10-DiHOME level relative to vehicle None median [1, 5]: 0.82 (0.65–1.09)
- 9,12,13-TriHOME level relative to vehicle None median [1, 5]: 1.22 (0.79–1.60)
- 9-HODE level relative to vehicle None median [1, 5]: 1.06 (0.50–1.64)
- 11-HETE level relative to vehicle None median [1, 5]: 2.29 (0.92–7.87)
- 12(13)-EpOME level relative to vehicle None median [1, 5]: 1.02 (0.53–1.98)
- 12(S)-HEPE level relative to vehicle None median [1, 5]: 0.27 (0–0.74)
- 12,13-DiHOME level relative to vehicle None median [1, 5]: 0.93 (0.76–1.04)
- 12-HETE level relative to vehicle None median [1, 5]: 0.32 (0.10–1.05)
- 13-HODE level relative to vehicle None median [1, 5]: 1.21 (0.55–1.75)
- 13-oxo-ODE level relative to vehicle None median [1, 5]: 1.49 (0.31–2.85)
- 15-HETE level relative to vehicle None median [1, 5]: 1.33 (0.67–3.37)
- AEA level relative to vehicle None median [1, 5]: 1.01 (0.37–1.16)
- LEA level relative to vehicle None median [1, 5]: 1.13 (0.33–1.60)
- OEA level relative to vehicle None median [1, 5]: 1.03 (0.87–1.22)
- PEA level relative to vehicle None median [1, 5]: 0.91 (0.49–1.15)
- PGD2 level relative to vehicle None median [1, 5]: 3.14 (1.51–4.13)
- SEA level relative to vehicle None median [1, 5]: 0.86 (0.65–1.11)
- Effect on levels of AEA and related N-acylethanolamines in the cells ([1]; LPS + INF-γ-treated, ionomycin (5 μM) treated cells, URB597 1 μM, flurbiprofen and (R)-Flu-AM1 10 μM): did not affect
- 2-AG level relative to vehicle None median [1, 6]: 0.94 (0.62–1.52)
- 9,10,13-TriHOME level relative to vehicle None median [1, 6]: 1.04 (0.81–1.41)
- 9,10-DiHOME level relative to vehicle None median [1, 6]: 1.05 (0.64–1.66)
- 9,12,13-TriHOME level relative to vehicle None median [1, 6]: 1.08 (0.76–1.57)
- 9-HODE level relative to vehicle None median [1, 6]: 0.99 (0.66–2.11)
- 11-HETE level relative to vehicle None median [1, 6]: 0.55 (0.12–2.43)
- 12(13)-EpOME level relative to vehicle None median [1, 6]: 1.03 (0.51–5.45)
- 12(S)-HEPE level relative to vehicle None median [1, 6]: 0.90 (0.17–1.43)
- 12,13-DiHOME level relative to vehicle None median [1, 6]: 1.12 (0.73–1.53)
- 12-HETE level relative to vehicle None median [1, 6]: 0.94 (0.27–1.82)
- 13-HODE level relative to vehicle None median [1, 6]: 0.97 (0.71–2.66)
- 13-oxo-ODE level relative to vehicle None median [1, 6]: 1.97(0.59–3.00)
- 15-HETE level relative to vehicle None median [1, 6]: 1.37 (0–2.72)
- AEA level relative to vehicle None median [1, 6]: 0.65 (0.39–0.86)
- LEA level relative to vehicle None median [1, 6]: 1.07 (0.21–1.26)
- OEA level relative to vehicle None median [1, 6]: 1.01 (0.79–1.11)
- PEA level relative to vehicle None median [1, 6]: 0.89 (0.74–1.06)
- PGD2 level relative to vehicle None median [1, 6]: 0 (0–0.25)
- PGE2 level relative to vehicle None median [1, 6]: 0 (0–0.25)
- SEA level relative to vehicle None median [1, 6]: 0.90 (0.52–1.02)
- IC50 [2]: 6 µM and ~6 µM
- IC50 ([3]; 10 μM 2-AG, read-out: IC50 COX-2 (2-AG)): 1 µM and ~1 µM
- IC50 ([3]; 10 μM arachidonic acid, read-out: IC50 COX-2 (arachidonic acid)): 20 µM and ~20 µM
- IC50 [4]: 0.74 µM
